Where no end group is shown, it is not given here.
What was measured:
PSMα3 fibrils = PSMα3 fibrils (Staphylococcus aureus, UniProt A9JX07); experiment: LC-MS degradation of amoxicillin and penicillin G with PSMα3 fibrils or buffer; type: biochemical; design: key to Amoxicillin (remaining) / Degraded Amoxicillin (PSMa3) / Degraded Amoxicillin: % relative abundance from extracted ion chromatogram peak areas; settings: for Amoxicillin (remaining) / Degraded Amoxicillin: buffer only (blank); for Amoxicillin (remaining) / Degraded Amoxicillin / Amoxicillin (PSMa3) (remaining) / Degraded Amoxicillin (PSMa3): LC-MS; for Amoxicillin (remaining) / Amoxicillin (PSMa3) (remaining): 366 peak as share of 366+384 sum; for Degraded Amoxicillin / Degraded Amoxicillin (PSMa3): 384 peak as share of 366+384 sum
Description: Amoxicillin or Penicillin solutions were dissolved in Hepes buffer (50 mM, pH 7.4) in concentration of 50 µM. PSMα3 solution in concentration of 1.54 mM was dissolved in DIW and Hepes buffer was added to the final concentration of 50 mM. The antibiotics’ solutions and preincubated PSMα3 solutions were mixed to final PSMα3 […] 180 µL organic solvent to stop the reaction (acetonitrile for Amoxicillin, methanol in the case of Penicillin). The samples were collected and injected sequentially into the LC-MS analysis.
Waters ACQUITY UPLC I-Class PLUS System coupled with high-resolution Thermo Orbitrap Exploris 240 mass-spectrometer were used for analysis of Amoxicillin and Penicillin-G over time. 1 µL of each sample was injected into the reverse-phase Acquity UPLC BEH C18 1.7 µm, 2.1 × 50 mm column (Waters) and run under a gradient program (Table S2 for Amoxicillin, Table S3 for Penicillin-G). The samples were ionized using soft electrospray ionization in positive mode and detected in a full scan mode in range from 60 to 900 m/z with a resolution of 240,000 Full Width at Half Maximum. MS was tuned according to the manufacture recommendations. Relative abundance of the intact/degraded compounds was calculated by peak area of the extracted ion chromatogram: for Amoxicillin 366.1–366.12, and degraded-Amoxicillin 384.1–384.13 m/z, Penicillin-G 335.1–335.12, for degraded-Penicillin-G 353.1–353.12, for (Figs. S13 and S14, respectively).

[1] = Nitrocefin hydrolysis kinetics (absorbance of degraded nitrocefin at 480 nm; initial rates V0, Michaelis-Menten fit); type: biochemical; settings: peptide 170 µM; for nitrocefin substrate degradation after two hours: initial nitrocefin 107 µM (Fig. 4b)
Description: Nitrocefin, a β-lactam widely used as a surrogate substrate of Penicillin in β-lactamase activity assay, was used as a substrate. NC degradation was monitored for 2 h. Nitrocefin stock solution was dissolved in acetonitrile (20 mM) and then diluted with Hepes buffer (50 mM, pH 7.4) to nitrocefin concentration of 360 µM (further dilutions to lower concentrations were made with the 360 µM NC stock). All nitrocefin samples were kept on ice in cold conditions and any further dilution or mixing was performed in ice-cold conditions to avoid self-hydrolysis background reaction. […] Immediately after mixing the samples, the plate was transferred to 20̊ °C pre-cooled plate reader (Multiskan GO, Thermo Scientific, Waltham, MA) and shaken slowly for 10 s. Then, the absorbance of degraded nitrocefin was measured for 2 h at interval of 20 s at λ = 480 nm. Initial production rates (V0) were calculated by slope of the initial linear range of degraded-nitrocefin production at the first 15 min. The reported results are and average of at least five separate measurements (the exact number of repeats, N, is reported next to the values). Each experiment also included blank samples of nitrocefin substrate diluted with buffer instead of PSMα. […] The initial rate calculations were performed while also subtracting the self-degradation of the substrate, to ensure that this product absorbance is a result of PSMα presence.
The initial rates of degraded-nitrocefin production were calculated from the slopes of the first 15 min of measurement as reported above. The initial rates (V0) were fitted using non-linear regression applied with the solver function in excel, either to Michalis–Menten equation V=Vmax.[S]/(KM+S) Where Vmax. Stands for maximal reaction rate, KM stands for Michalis–Menten constant, [S] stands for the substrate molar concentration. Each initial rate value was presented as average ± SEM. The kinetic parameters were calculated by fitting the data to MM model using non-linear regression, and the confidence intervals for each parameter were calculated accordingly.

PSMα3 fibrils, sequence (A9JX07 whole entry, looked up): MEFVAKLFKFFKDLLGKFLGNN

CC1(C)S[C@@H]2[C@H](NC(=O)[C@H](N)c3ccc(O)cc3)C(=O)N2[C@H]1C(=O)O [amoxycillin]
hydrolysis by PSMα3 fibrils versus spontaneous degradation (PSMα3 fibrils; antibiotic 40 µM, PSMα3 fibrils 308 µM, Hepes 50 mM pH 7.4, LC-MS (Fig. 6)): significantly higher extent compared to the spontaneous degradation
Amoxicillin (remaining) (PSMα3 fibrils; 0h): 81.4445
Degraded Amoxicillin (PSMα3 fibrils; 0h): 18.5555
Amoxicillin (remaining) (PSMα3 fibrils; 4h): 80.1864
Degraded Amoxicillin (PSMα3 fibrils; 4h): 19.8136
Amoxicillin (remaining) (PSMα3 fibrils; 8h): 79.6866
Degraded Amoxicillin (PSMα3 fibrils; 8h): 20.3134
Amoxicillin (remaining) (PSMα3 fibrils; 12h): 78.9455
Degraded Amoxicillin (PSMα3 fibrils; 12h): 21.0545
Amoxicillin (remaining) (PSMα3 fibrils; 24h): 78.1892
Degraded Amoxicillin (PSMα3 fibrils; 24h): 21.8108
Amoxicillin (remaining) (PSMα3 fibrils; 60h): 69.9317
Degraded Amoxicillin (PSMα3 fibrils; 60h): 30.0683
Amoxicillin (remaining) (PSMα3 fibrils; 72h): 68.3628
Degraded Amoxicillin (PSMα3 fibrils; 72h): 31.6372
Amoxicillin (remaining) (PSMα3 fibrils; 80h): 59.5525
Degraded Amoxicillin (PSMα3 fibrils; 80h): 40.4475
Amoxicillin (PSMa3) (remaining) (PSMα3 fibrils; with PSMa3, 0h): 79.7112
Degraded Amoxicillin (PSMa3) (PSMα3 fibrils; with PSMa3, 0h): 20.2888
Amoxicillin (PSMa3) (remaining) (PSMα3 fibrils; with PSMa3, 4h): 78.2636
Degraded Amoxicillin (PSMa3) (PSMα3 fibrils; with PSMa3, 4h): 21.7364
Amoxicillin (PSMa3) (remaining) (PSMα3 fibrils; with PSMa3, 8h): 74.8273
Degraded Amoxicillin (PSMa3) (PSMα3 fibrils; with PSMa3, 8h): 25.1727
Amoxicillin (PSMa3) (remaining) (PSMα3 fibrils; with PSMa3, 12h): 70.3173
Degraded Amoxicillin (PSMa3) (PSMα3 fibrils; with PSMa3, 12h): 29.6827
Amoxicillin (PSMa3) (remaining) (PSMα3 fibrils; with PSMa3, 24h): 62.2462
Degraded Amoxicillin (PSMa3) (PSMα3 fibrils; with PSMa3, 24h): 37.7538
Amoxicillin (PSMa3) (remaining) (PSMα3 fibrils; with PSMa3, 60h): 12.8041
Degraded Amoxicillin (PSMa3) (PSMα3 fibrils; with PSMa3, 60h): 87.1959
Amoxicillin (PSMa3) (remaining) (PSMα3 fibrils; with PSMa3, 72h): 5.039
Degraded Amoxicillin (PSMa3) (PSMα3 fibrils; with PSMa3, 72h): 94.9606
Amoxicillin (PSMa3) (remaining) (PSMα3 fibrils; with PSMa3, 80h): 3.011
Degraded Amoxicillin (PSMa3) (PSMα3 fibrils; with PSMa3, 80h): 96.9892

MEFVAKLFAFFKDLLGKFLGNN [α3-K9A]
nitrocefin substrate degradation after two hours [1]: minimal degradation

MEFVAALFKFFKDLLGKFLGNN [α3-K6A]
nitrocefin substrate degradation after two hours [1]: minimal degradation

MEFVAKLFKFFADLLGKFLGNN [α3-K12A]
nitrocefin substrate degradation after two hours [1]: 70%

CSCC[C@H](N)C(=O)N[C@@H](CCC(=O)O)C(=O)N[C@@H](Cc1ccccc1)C(=O)N[C@H](C(=O)N[C@@H](C)C(=O)N[C@@H](CCCCN)C(=O)N[C@@H](CC(C)C)C(=O)N[C@@H](Cc1ccccc1)C(=O)N[C@@H](CCCCN)C(=O)N[C@@H](Cc1ccccc1)C(=O)N[C@@H](Cc1ccccc1)C(=O)N[C@@H](CCCCN)C(=O)N[C@@H](CC(=O)O)C(=O)N[C@@H](CC(C)C)C(=O)N[C@@H](CC(C)C)C(=O)NCC(=O)N[C@@H](C)C(=O)N[C@@H](Cc1ccccc1)C(=O)N[C@@H](CC(C)C)C(=O)NCC(=O)N[C@@H](CC(N)=O)C(=O)N[C@@H](CC(N)=O)C(=O)O)C(C)C [α3-K17A]
nitrocefin substrate degradation after two hours [1]: minimal degradation

MEFVAKLFKPFKDLLGKFLGNN [α3-F10P]
initial rate of nitrocefin degradation reaction (V0) ([1]; initial nitrocefin 107 µM, Hepes 50 mM pH 7.4, 20 °C, first 15 min (Fig. 3f)): lower than 15 µM/h

CSCC[C@H](NC(C)=O)C(=O)N[C@@H](CCC(=O)O)C(=O)N[C@@H](Cc1ccccc1)C(=O)N[C@H](C(=O)N[C@@H](C)C(=O)N[C@@H](CCCCN)C(=O)N[C@@H](CC(C)C)C(=O)N[C@@H](Cc1ccccc1)C(=O)N[C@@H](CCCCN)C(=O)N[C@@H](Cc1ccccc1)C(=O)N[C@@H](Cc1ccccc1)C(=O)N[C@@H](CCCCN)C(=O)N[C@@H](CC(=O)O)C(=O)N[C@@H](CC(C)C)C(=O)N[C@@H](CC(C)C)C(=O)NCC(=O)N[C@@H](CCCCN)C(=O)N[C@@H](Cc1ccccc1)C(=O)N[C@@H](CC(C)C)C(=O)NCC(=O)N[C@@H](CC(N)=O)C(=O)N[C@@H](CC(N)=O)C(=O)O)C(C)C [α3-N.Ac.]
nitrocefin substrate degradation after two hours [1]: minimal degradation
